Measurements published in patent US7138411B2, “Substituted benzopyran derivatives for the treatment of inflammation” (G.D. Searle & Co., priority 1997, dated 2006).
Structures can show the parent of a compound that is named as a salt.

| Structure (SMILES) | melting point |
| --- | --- |
| Cc1cccc2c1SC(C(F)(F)F)C(C(=O)O)=C2 (stereo not shown) [Example 150, 8-Methyl-2-(trifluoromethyl)-2H-1-benzothiopyran-3-carboxylic acid] | 224 to 225 °C |
| O=C(O)C1=Cc2ccc(Cl)cc2SC1C(F)(F)F (stereo not shown) [Example 153, 7-Chloro-2-(trifluoromethyl)-2H-1-benzothiopyran-3-carboxylic acid] | 225.7 to 227.3 °C |
| CC(C)(C)CC(=O)c1ccc2c(c1)C=C(C(=O)O)C(C(F)(F)F)O2 (stereo not shown) [Example 60, 6-(2,2-Dimethylpropylcarbonyl)-2-trifluoromethyl-2H-1-benzopyran-3-carboxylic acid] | 198 to 200 °C |
| CC(C)(C)c1ccc2c(c1)OC(C(F)(F)C(F)(F)F)C(C(=O)O)=C2 (stereo not shown) [Example 111, 7-(1,1-Dimethylethyl)-2-(pentafluoroethyl)-2H-1-benzopyran-3-carboxylic acid] | 171 to 173.5 °C |
| O=C(O)C1=Cc2cc(Cl)c(S(=O)(=O)c3ccc(Cl)cc3)cc2OC1C(F)(F)F (stereo not shown) [Example 194, 6-Chloro-7-[(4-chlorophenyl)sulfonyl]-2-(trifluoromethyl)-2H-1-benzopyran-3-carboxylic acid] | 240.4 to 241.5 °C |
| COc1cccc2c1C=C(C(=O)O)C(C(F)(F)F)O2 (stereo not shown) [Example 95, 5-Methoxy-2-(trifluoromethyl)-2H-1-benzopyran-3-carboxylic acid] | 204.5 to 206.7 °C |
| O=C(O)C1=Cc2cc(C(F)(F)F)ccc2NC1C(F)(F)F (stereo not shown) [Example 163, 6-(Trifluoromethyl)-1,2-dihydro-2-(trifluoromethyl)-3-quinolinecarboxylic acid] | 150 to 156 °C |
| O=C(O)C1=Cc2cc(S(=O)(=O)NCCc3ccccc3)ccc2OC1C(F)(F)F (stereo not shown) [Example 71, 6-[[(Phenylethyl)amino]sulfonyl]-2-(trifluoromethyl)-2H-1-benzopyran-3-carboxylic acid] | 187 to 190 °C |
| O=C(O)C1=Cc2ccccc2SC1C(F)(F)F (stereo not shown) [Example 151, 2-(Trifluoromethyl)-2H-1-benzothiopyran-3-carboxylic acid] | 187 to 190 °C |
| O=C(O)C1=C(c2ccccc2)c2cc(Cl)ccc2OC1C(F)(F)F (stereo not shown) [Example 143, 6-Chloro-2-(trifluoromethyl)-4-phenyl-2H-1-benzopyran-3-carboxylic acid] | 225.5 to 226.6 °C |
| Cc1cc(C)c2c(c1)C=C(C(=O)O)C(C(F)(F)F)S2 (stereo not shown) [Example 146, 6,8-Dimethyl-2-(trifluoromethyl)-2H-1-benzothiopyran-3-carboxylic acid] | 220 to 225 °C (dec.) |
| COc1ccc(C#Cc2cc(Cl)cc3c2OC(C(F)(F)F)C(C(=O)O)=C3)cc1 (stereo not shown) [Example 123, 6-Chloro-8-[(4-methoxyphenyl)ethynyl]-2-(trifluoromethyl)-2H-1-benzopyran-3-carboxylic acid] | 217.7 to 218.7 °C |
| CCC1=C(C(=O)O)C(C(F)(F)F)Oc2ccc(Cl)cc21 (stereo not shown) [Example 212, 6-Chloro-4-ethyl-2-trifluoromethyl-2H-1-benzopyran-3-carboxylic acid] | 170.9 to 172.1 °C |
| O=C(O)C1=Cc2cc(Cl)cnc2NC1C(F)(F)F (stereo not shown) [Example 174, 6-Chloro-2-(triflouromethyl)-1,2-dihydro[1,8]napthyridine-3-carboxylic acid] | 287.4 to 288.4 °C |
| Cc1ccc2c(c1)SC(C(F)(F)F)C(C(=O)O)=C2 (stereo not shown) [Example 148, 7-Methyl-2-(trifluoromethyl)-2H-1-benzothiopyran-3-carboxylic acid] | 186.6 to 191.9 °C |
| O=C(O)C1=Cc2cc(Cl)c(Oc3ccc(Cl)c(F)c3)cc2OC1C(F)(F)F (stereo not shown) [Example 205, 6-Chloro-7-(4-chloro-3-fluorophenoxy)-2-(trifluoromethyl)-2H-1-benzapyran-3-carboxylic acid] | 206.8 to 207.4 °C |
| O=C(O)C1=Cc2cc(Cl)ccc2N(Cc2ccc(Cl)cc2)C1C(F)(F)F (stereo not shown) [Example 167, 6-Chloro-1-[(4-Chlorophenyl)methyl]-1,2-dihydro-2-(trifluoromethyl)-3-quinolinecarboxylic acid] | 250 to 253 °C |
| O=C(O)C1=Cc2cc(Cl)ccc2N(Cc2ccc(C(F)(F)F)cc2)C1C(F)(F)F (stereo not shown) [Example 166, 6-Chloro-1,2-dihydro-2-(trifluoromethyl)-1-[[4-(trifluoromethyl)phenyl]methyl]-3-quinolinecarboxylic acid] | 229 to 231 °C |
| CCN(CC)c1ccc2c(c1)OC(C(F)(F)F)C(C(=O)O)=C2 (stereo not shown) [Example 48, 7-(N,N-Diethylamino)-2-trifluoromethyl-2H-1-benzopyran-3-carboxylic acid] | 214.4 to 215.4 °C |
| CC(C)Oc1ccc2c(c1)OC(C(F)(F)F)C(C(=O)O)=C2 (stereo not shown) [Example 20, 7-Isopropyloxy-2-trifluoromethyl-2H-1-benzopyran-3-carboxylic acid] | 161 to 163 °C |
| O=C(O)C1=Cc2cc(S(=O)(=O)Cc3ccccc3)ccc2OC1C(F)(F)F (stereo not shown) [Example 70, 6-[(Phenylmethyl)sulfonyl]-2-(trifluoromethyl)-2H-1-benzopyran-3-carboxylic acid] | 172 to 176 °C |
| O=C(O)C1=Cc2cc(-c3ccccc3)ccc2OC1C(F)(F)F (stereo not shown) [Example 132, 6-Phenyl-2-(trifluoromethyl)-2H-1-benzopyran-3-carboxylic acid] | 197 to 198 °C |
| C=CC1=C(C(=O)O)C(C(F)(F)F)Oc2ccc(Cl)cc21 (stereo not shown) [Example 142, 6-Chloro-2-(trifluoromethyl)-4-ethenyl-2H-1-benzopyran-3-carboxylic acid] | 143 to 145 °C |
| O=C(O)C1=Cc2cc(Cl)c(Oc3ccc(C(=O)O)cc3Cl)cc2OC1C(F)(F)F (stereo not shown) (as salt: potassium) [Example 207, 7-(4-Carboxy-2-chloro-phenoxy)-6-chloro-2-(trifluoromethyl)-2H-1-benzopyran-3-carboxylic acid] | > 300 °C |
| O=C(O)C1=Cc2cc(Cl)cc(COCc3ccccc3)c2OC1C(F)(F)F (stereo not shown) [Example 113, 6-Chloro-8-(benzyloxymethyl)-2-(trifluoromethyl)-2H-1-benzopyran-3-carboxylic acid] | 133.8 to 135.4 °C |

Next, values leading:

| melting point | Structure (SMILES) |
| --- | --- |
| 175.2 to 177.6 °C | O=C(O)C1=Cc2ccc(Cl)cc2OC1C(F)(F)F (stereo not shown) [Example 72, 7-Chloro-2-trifluoromethyl-2H-1-benzopyran-3-carboxylic acid] |
| 186.6 to 188.9 °C | O=C(O)C1=Cc2cc(F)c(F)cc2NC1C(F)(F)F (stereo not shown) [Example 159, 6,7-Difluoro-1,2-dihydro-2-(trifluoromethyl)-3-quinolinecarboxylic acid] |
| 238.1 to 239.7 °C | N#Cc1cc(Cl)cc2c1OC(C(F)(F)F)C(C(=O)O)=C2 (stereo not shown) [Example 107, 6-Chloro-8-cyano-2-(trifluoromethyl)-2H-1-benzopyran-3-carboxylic acid] |
| 219.5 to 220.9 °C | O=C(O)C1=Cc2ccc(Cl)c(Cl)c2OC1C(F)(F)F (stereo not shown) [Example 19, 7,8-Dichloro-2-trifluoromethyl-2H-1-benzopyran-3-carboxylic acid] |
| 126 to 133 °C | Nc1ccc2c(c1)C=C(C(=O)O)C(C(F)(F)F)O2 (stereo not shown) [Example 36, 6-Amino-2-trifluoromethyl-2H-1-benzopyran-3-carboxylic acid] |
| 185.4 to 186.8 °C | CCc1cccc2c1OC(C(F)(F)F)C(C(=O)O)=C2 (stereo not shown) [Example 28, 8-Ethyl-2-trifluoromethyl-2H-1-benzopyran-3-carboxylic acid] |
| 167 to 168.6 °C | CCc1ccc2c(c1)OC(C(F)(F)F)C(C(=O)O)=C2 (stereo not shown) [Example 85, 7-Ethyl-2-trifluoromethyl-2H-1-benzopyran-3-carboxylic acid] |
| 187 to 189 °C | O=C(O)C1=Cc2cc([N+](=O)[O-])ccc2OC1C(F)(F)F (stereo not shown) [Example 37, 6-Nitro-2-trifluoromethyl-2H-1-benzopyran-3-carboxylic acid] |
| 173.1 to 177.4 °C | COc1cccc(-c2cc(Cl)cc3c2OC(C(F)(F)F)C(C(=O)O)=C3)c1 (stereo not shown) [Example 126, 6-Chloro-8-(3-methoxyphenyl)-2-(trifluoromethyl)-2H-1-benzopyran-3-carboxylic acid] |
| 194 to 196 °C | COc1ccc(-c2cc(Cl)cc3c2OC(C(F)(F)F)C(C(=O)O)=C3)cc1 (stereo not shown) [Example 141, 6-Chloro-8-(4-methoxyphenyl)-2-trifluoromethyl-2H-1-benzopyran-3-carboxylic acid] |
| 168.1 to 171.2 °C | CCCC#Cc1cc(Cl)cc2c1OC(C(F)(F)F)C(C(=O)O)=C2 (stereo not shown) [Example 119, 6-Chloro-8-(1-pentynyl)-2-(trifluoromethyl)-2H-1-benzopyran-3-carboxylic acid] |
| 198.4 to 199.5 °C | O=C(O)C1=Cc2ccc(Br)cc2OC1C(F)(F)F (stereo not shown) [Example 5, 7-Bromo-2-trifluoromethyl-2H-1-benzopyran-3-carboxylic acid] |
| 206 to 208 °C | O=C(O)C1=Cc2cc(Br)cc(F)c2OC1C(F)(F)F (stereo not shown) [Example 130, 6-Bromo-8-fluoro-2-(trifluoromethyl)-2H-1-benzopyran-3-carboxylic acid] |
| 177.5 to 180.8 °C | O=C(O)C1=Cc2cc(CO)ccc2OC1C(F)(F)F (stereo not shown) [Example 80, 6-Hydroxymethyl-2-(trifluoromethyl)-2H-1-benzopyran-3-carboxylic acid] |
| 218.3 to 222.4 °C | CC(C)(C)C#Cc1cc(Cl)cc2c1OC(C(F)(F)F)C(C(=O)O)=C2 (stereo not shown) [Example 121, 6-Chloro-8-(3,3-dimethyl-1-butynyl)-2-(trifluoromethyl)-2H-1-benzopyran-3-carboxylic acid] |
| 246.9 to 247.9 °C | O=C(O)C1=Cc2cc(Cl)cc(/C=N/O)c2OC1C(F)(F)F (stereo not shown) [Example 108, 6-Chloro-8-[(hydroxyimino)methyl]-2-(trifluoromethyl)-2H-1-benzopyran-3-carboxylic acid] |
| 245.9 to 248.6 °C | O=C(O)C1=Cc2ccc3ccccc3c2OC1C(F)(F)F (stereo not shown) [Example 62, 2-Trifluoromethyl-2H-naphtho[1,2-b]pyran-3-carboxylic acid] |
| 197.7 to 210.1 °C | O=C(O)C1=Cc2cccc(F)c2OC1C(F)(F)F (stereo not shown) [Example 17, 8-Fluoro-2-trifluoromethyl-2H-1-benzopyran-3-carboxylic acid] |
